The target of data set [1] is T1, mAhR (Mus musculus, UniProt P30561, M324I). The arrangement: host or cells: rabbit reticulocyte lysate, coupled transcription/translation. The following applies: in vitro synthesized AhRs, specific binding. On the procedure:
(§1) [^3H]TCDD specific binding was determined by subtracting the amount of [^3H]TCDD bound to unprogrammed lysate (nonspecific binding) from the total amount of [^3H]TCDD binding to lysate containing in vitro expressed AhR.
Target sequence in this assay (P30561 10-805 M324I limits assumed): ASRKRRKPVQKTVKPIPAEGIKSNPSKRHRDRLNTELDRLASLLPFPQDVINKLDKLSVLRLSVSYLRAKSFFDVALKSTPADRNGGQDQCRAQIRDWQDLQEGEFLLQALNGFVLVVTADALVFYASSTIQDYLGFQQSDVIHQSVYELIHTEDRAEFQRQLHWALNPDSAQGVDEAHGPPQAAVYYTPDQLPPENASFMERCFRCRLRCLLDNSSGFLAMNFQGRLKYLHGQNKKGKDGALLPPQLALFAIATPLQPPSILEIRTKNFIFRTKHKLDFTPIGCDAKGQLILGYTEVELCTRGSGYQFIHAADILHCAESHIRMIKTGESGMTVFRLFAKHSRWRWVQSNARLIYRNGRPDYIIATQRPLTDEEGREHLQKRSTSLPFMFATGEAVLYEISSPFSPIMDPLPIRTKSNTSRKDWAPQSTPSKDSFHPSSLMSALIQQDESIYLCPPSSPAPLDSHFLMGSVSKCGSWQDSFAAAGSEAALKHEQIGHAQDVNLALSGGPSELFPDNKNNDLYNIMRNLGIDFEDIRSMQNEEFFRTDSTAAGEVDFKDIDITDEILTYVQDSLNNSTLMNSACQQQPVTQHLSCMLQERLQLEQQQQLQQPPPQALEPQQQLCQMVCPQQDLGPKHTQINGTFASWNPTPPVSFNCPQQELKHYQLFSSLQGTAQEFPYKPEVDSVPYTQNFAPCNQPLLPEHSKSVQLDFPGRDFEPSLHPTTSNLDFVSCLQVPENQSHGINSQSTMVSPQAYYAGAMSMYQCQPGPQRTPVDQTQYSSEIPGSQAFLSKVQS

The target in data set [2] is T2, mutant mAhR A349T (Mus musculus, UniProt P30561, A349T/M324I). Further details: host or cells: rabbit reticulocyte lysate, coupled transcription/translation. As to conditions: specific binding. On the procedure:
as §1
Target sequence in this assay (P30561 10-805 M324I/A349T limits assumed): as the sequence (P30561 10-805 M324I limits assumed) above, with A340T counted along it

The target in data set [3] is T3, mouse AhR (mAhR) (Mus musculus, UniProt P30561).
T3 sequence (P30561 10-805): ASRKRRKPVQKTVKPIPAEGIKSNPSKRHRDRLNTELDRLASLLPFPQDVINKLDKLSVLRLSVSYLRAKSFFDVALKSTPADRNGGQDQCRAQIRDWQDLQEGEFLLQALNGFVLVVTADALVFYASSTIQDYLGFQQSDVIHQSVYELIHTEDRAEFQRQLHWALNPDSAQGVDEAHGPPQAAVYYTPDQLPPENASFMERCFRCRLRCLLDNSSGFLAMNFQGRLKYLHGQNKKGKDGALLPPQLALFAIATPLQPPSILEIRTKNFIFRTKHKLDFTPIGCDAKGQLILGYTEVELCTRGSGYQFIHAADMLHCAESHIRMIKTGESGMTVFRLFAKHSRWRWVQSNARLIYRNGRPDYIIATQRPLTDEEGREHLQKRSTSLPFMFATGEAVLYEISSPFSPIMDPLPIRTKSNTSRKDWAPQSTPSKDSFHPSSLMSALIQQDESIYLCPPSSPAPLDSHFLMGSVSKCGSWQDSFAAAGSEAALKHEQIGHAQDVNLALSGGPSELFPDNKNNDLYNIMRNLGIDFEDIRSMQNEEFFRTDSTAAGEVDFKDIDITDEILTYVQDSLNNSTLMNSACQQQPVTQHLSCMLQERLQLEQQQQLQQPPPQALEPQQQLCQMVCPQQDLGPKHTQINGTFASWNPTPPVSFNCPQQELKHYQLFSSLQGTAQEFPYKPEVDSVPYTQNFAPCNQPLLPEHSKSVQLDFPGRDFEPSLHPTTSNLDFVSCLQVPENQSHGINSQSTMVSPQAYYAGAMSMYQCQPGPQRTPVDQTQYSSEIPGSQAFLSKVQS
Briefly: AhR-responsive luciferase reporter gene assay in stably transfected mouse H1L6.1c3 hepatoma cells. It is filed as cell-based. As to conditions: for EC50: mouse H1L6.1c3 hepatoma cells, 4 h, mean ± SD of nine analyses, read-out: EC50 to stimulate luciferase reporter gene expression, Mouse.
Protocol: (§2) AhR-dependent gene transcription was determined in (A) human HG2L6.1c.1 and (B) mouse H1L6.1c.3 hepatoma cell lines that contain a stably transfected AhR-responsive luciferase reporter gene. […] Luciferase activity (Relative Light Units (RLUs)) was normalized to the maximal induction observed with TCDD in each cell line. Values represent the mean ± SD of nine independent analyses.
(§3) Recombinant mouse (H1L6.1c3) and human (HG2L6.1c1) hepatoma cells containing a stably integrated AhR-responsive luciferase reporter gene plasmid (pGudLuc6.1) were plated (750,000 cells/well) in 96-well plates and incubated at 37 °C for 24 h prior to chemical treatment. Cells were incubated with DMSO (1% (v/v)) or the indicated concentration of test chemical in DMSO for 4 h, followed by visual inspection of the cells for toxicity, washing of the cells with phosphate-buffered saline (PBS), addition of 50 µL of passive lysis buffer (Promega) and lysis of cells for 20 min at room temperature with shaking [50]. Luciferase activity in each well was measured (integrating luminescence over 10 s with a 10 s delay) in an Orion microplate luminometer (Berthold Detection Systems, Bad Wildbad, Germany) following automatic injection of Promega stabilized luciferase reagent.
(§4) Analysis of statistical significance of differences between experimental values was conducted using Two-Way ANOVA and EC50s and IC50s were calculated using nonlinear regression (three parameter) analysis in GraphPad Prism v.7 (La Jolla, CA, USA).

For data set [4], the target named is T4, human AhR (hAhR) (Homo sapiens, UniProt P35869).
T4 sequence (P35869 11-848): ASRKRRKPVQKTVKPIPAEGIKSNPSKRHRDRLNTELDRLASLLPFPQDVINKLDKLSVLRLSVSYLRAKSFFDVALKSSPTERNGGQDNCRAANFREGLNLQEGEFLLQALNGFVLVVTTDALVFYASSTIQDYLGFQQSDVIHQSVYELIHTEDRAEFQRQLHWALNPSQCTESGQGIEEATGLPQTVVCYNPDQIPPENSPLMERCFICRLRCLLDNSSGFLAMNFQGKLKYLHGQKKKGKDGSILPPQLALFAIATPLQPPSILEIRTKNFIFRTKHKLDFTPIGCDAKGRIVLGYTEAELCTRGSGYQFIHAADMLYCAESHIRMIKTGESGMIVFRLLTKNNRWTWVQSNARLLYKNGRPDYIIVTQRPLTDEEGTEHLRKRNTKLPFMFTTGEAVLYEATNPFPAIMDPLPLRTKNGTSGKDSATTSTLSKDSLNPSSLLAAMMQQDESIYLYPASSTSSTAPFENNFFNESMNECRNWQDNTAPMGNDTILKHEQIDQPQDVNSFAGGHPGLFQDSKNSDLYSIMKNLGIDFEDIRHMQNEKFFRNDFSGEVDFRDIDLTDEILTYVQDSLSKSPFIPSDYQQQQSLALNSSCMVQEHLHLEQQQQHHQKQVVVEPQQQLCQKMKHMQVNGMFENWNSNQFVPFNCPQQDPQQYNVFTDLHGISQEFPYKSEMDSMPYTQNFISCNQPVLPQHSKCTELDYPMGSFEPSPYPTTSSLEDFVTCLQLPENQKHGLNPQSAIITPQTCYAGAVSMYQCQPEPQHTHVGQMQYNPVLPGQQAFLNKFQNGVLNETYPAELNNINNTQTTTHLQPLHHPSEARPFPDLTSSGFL
The data set is described as follows: AhR-responsive luciferase reporter gene assay in stably transfected human HG2L6.1c1 hepatoma cells. The following applies: for maximal level of reporter gene induction: human HG2L6.1c1 cells, relative to TCDD.
Protocol: as §2, §3, §4

Data set [5] has as its target T5, mutant hAhR T355A (Homo sapiens, UniProt P35869, T355A).
T5 construct: made in house; host or cells: in vitro transcription/translation, rabbit reticulocyte lysate
The data set is described as follows: AhR DNA binding (gel retardation) assay, T355A hAhR. The class given is biochemical.
Protocol: (§5) An aliquot of each incubation was mixed with [^32P]-labeled double-stranded oligonucleotide containing the AhR-ARNT DRE3 DNA binding site (a dioxin responsive element from the upstream region of the murine Cyp1a1 gene [9] and protein-DNA complexes resolved by gel retardation analysis as previously described [48, 49]. Gels were visualized using a FLA9000 Fujifilm Imager and protein-DNA complexes quantitated with Fujifilm MultiGauge software (FujiFilm Corporation, Valhalla, NY, USA).
as §4
(§6) In vitro synthesized mutant mAhRs were incubated in the presence of
(§7) 45 nM-10,000 nM) for 2 h and DNA binding analyzed by the gel retardation assay as described in
(§8) 46 Materials and Methods. Values represent the mean ± SD of nine individual replicate analyses and
(§9) 47 EC50 values determined by nonlinear regression (three-parameter) analysis and graphical depictions

The target in data set [6] is T6, mutant mAhR I301V (Mus musculus, UniProt P30561, I301V/M324I).
T6 construct: made in house; host or cells: in vitro transcription/translation, rabbit reticulocyte lysate
Briefly: AhR DNA binding (gel retardation) assay, I301V mAhR. It is filed as biochemical.
Protocol: as §5, §4

Data set [7] deals with T7, mutant mAhR T343I (Mus musculus, UniProt P30561, M324I/T343I).
T7 construct: made in house; host or cells: in vitro transcription/translation, rabbit reticulocyte lysate
Briefly: AhR DNA binding (gel retardation) assay, T343I mAhR. It is filed as biochemical.
Protocol: as §5, §4

Data set [8] has as its target T8, mutant mAhR S352N (Mus musculus, UniProt P30561, M324I/S352N).
T8 construct: made in house; host or cells: in vitro transcription/translation, rabbit reticulocyte lysate
The data set is described as follows: AhR DNA binding (gel retardation) assay, S352N mAhR. It is filed as biochemical.
Protocol: as §5, §4, §6, §7, §8, §9

Data set [9] concerns the target T9, mutant hAhR V381A (Homo sapiens, UniProt P35869, V381A).
T9 construct: made in house; host or cells: in vitro transcription/translation, rabbit reticulocyte lysate
The data set is described as follows: AhR DNA binding (gel retardation) assay, V381A hAhR. It is filed as biochemical.
Protocol: as §5, §4, §6, §7, §8, §9

Data set [10] concerns the target T10, mutant mAhR H326Y (Mus musculus, UniProt P30561, H326Y/M324I).
T10 construct: made in house; host or cells: in vitro transcription/translation, rabbit reticulocyte lysate
The data set is described as follows: AhR DNA binding (gel retardation) assay, H326Y mAhR. It is filed as biochemical.
Protocol: as §5, §4

Data set [11] addresses T11, mutant mAhR L300I (Mus musculus, UniProt P30561, L300I/M324I).
T11 construct: made in house; host or cells: in vitro transcription/translation, rabbit reticulocyte lysate
The data set is described as follows: AhR DNA binding (gel retardation) assay, L300I mAhR. The class given is biochemical.
Protocol: as §5, §4

Data set [12] concerns the target T12, mutant mAhR H351N (Mus musculus, UniProt P30561, H351N/M324I).
T12 construct: made in house; host or cells: in vitro transcription/translation, rabbit reticulocyte lysate
Briefly: AhR DNA binding (gel retardation) assay, H351N mAhR. The class given is biochemical.
Protocol: as §5, §4, §6, §7, §8, §9

Data set [13] deals with T13, mutant A349T mAhR.
T13 construct: contains a full-length mAhR cDNA in which the mouse PASB LBD was replaced; expressed in transfected cells; host or cells: COS-1
The data set is described as follows: Transient transfection luciferase reporter assay in COS-1 cells, A349T mAhR. As to conditions: COS-1 cells cotransfected with A349T mAhR; TCDD 10 nM, IR 1 µM, 18–20 h. The class given is cell-based, mouse.
Protocol: (§10) Cells were lysed, and lysates were analyzed for firefly luciferase activity. […] Luciferase activity (relative light units; RLU) was measured and corrected for background (DMSO) and normalized to mAhR TCDD levels. Values represent the mean ± SD of nine individual replicate analyses.
(§11) COS-1 cells were plated at a density of 75,000 cells/well and allowed to attach overnight in a 24-well plate. Cells were transiently transfected (per well) with the following amounts per well: 2 µL Lipofectamine 2000 (Invitrogen, Carlsbad, CA, USA), 20 ng wild-type (mβAhR/pcDNA3) or mutant AhR expression plasmids (in pcDNA3.1), 20 ng of mβARNT/pcDNA3 or pcDNA3.1(+) and 200 ng pGudLuc6.1 [17].

Data set [14] concerns T14, wild-type mAhR.
T14 construct: contains a full-length mAhR cDNA in which the mouse PASB LBD was replaced; expressed in transfected cells; host or cells: COS-1
The data set is described as follows: Transient transfection luciferase reporter assay in COS-1 cells, wild-type mAhR. It is filed as cell-based, mouse. As to conditions: COS-1 cells cotransfected with wild-type mAhR; TCDD 10 nM, IR 1 µM, 18–20 h.
Protocol: as §10, §11

The target in data set [15] is T15, mutant hAhR Y332H (Homo sapiens, UniProt P35869, Y332H).
T15 construct: made in house; host or cells: in vitro transcription/translation, rabbit reticulocyte lysate
The data set is described as follows: AhR DNA binding (gel retardation) assay, Y332H hAhR. The class given is biochemical.
Protocol: as §5, §4, §6, §7, §8, §9

Data set [16] concerns the target T1, mAhR. Briefly: biochemical. The arrangement: made in house; host or cells: in vitro transcription/translation, rabbit reticulocyte lysate (Promega TNT).
Protocol: (§12) (A) The amount of inducible protein-DNA complex at each chemical concentration was quantitated and values normalized to the amount of complex formed with a maximal activating concentration of TCDD (20 nM). […] Values represent the mean ± SD of nine individual replicate analyses.
as §5, §4
The target of data set [17] is T16, mutant mAhR V307A (Mus musculus, UniProt P30561, M324I/V307A).
T16 construct: made in house; host or cells: in vitro transcription/translation, rabbit reticulocyte lysate
The data set is described as follows: AhR DNA binding (gel retardation) assay, V307A mAhR. The class given is biochemical.
Protocol: as §5, §4

Data set [18] has as its system mAhR A375V. As to conditions: A375V versus high-affinity mAhR ref 27, 28; cited from earlier work.
Data set [19] deals with T2, mutant mAhR A349T. Briefly: biochemical. Further details: made in house; host or cells: in vitro transcription/translation, rabbit reticulocyte lysate.
Protocol: as §5, §4
The target in data set [20] is T17, mutant mAhR I324M (Mus musculus, UniProt P30561).
T17 construct: made in house; host or cells: in vitro transcription/translation, rabbit reticulocyte lysate
Briefly: AhR DNA binding (gel retardation) assay, I324M mAhR. The class given is biochemical.
Protocol: as §5, §4

The target of data set [21] is T18, mutant mAhR Q299R (Mus musculus, UniProt P30561, M324I/Q299R).
T18 construct: made in house; host or cells: in vitro transcription/translation, rabbit reticulocyte lysate
The data set is described as follows: AhR DNA binding (gel retardation) assay, Q299R mAhR. It is filed as biochemical.
Protocol: as §5, §4

Data set [22] deals with T19, mutant mAhR A375V (Mus musculus, UniProt P30561, A375V/M324I).
T19 construct: made in house; host or cells: in vitro transcription/translation, rabbit reticulocyte lysate
Briefly: biochemical.
Protocol: as §5, §4

Data set [23] deals with T20, mutant mAhR R355T (Mus musculus, UniProt P30561, M324I/R355T).
T20 construct: made in house; host or cells: in vitro transcription/translation, rabbit reticulocyte lysate
Briefly: AhR DNA binding (gel retardation) assay, R355T mAhR. The class given is biochemical.
Protocol: as §5, §4, §6, §7, §8, §9

Data set [24] relates to mAhR A375V. As to conditions: A375V versus high-affinity mAhR ref 27, 28; cited from earlier work. This is another data set of the same source.
For data set [25], the target named is hAhR (Homo sapiens, UniProt P35869). Briefly: biochemical. The arrangement: only occur within the full length hAhR and not in the mAhR-hAhRLBD chimera; made in house; host or cells: in vitro transcription/translation, rabbit reticulocyte lysate.
Protocol: as §12, §5, §4

T7 sequence (P30561 10-805 M324I/T343I limits assumed): as the sequence (P30561 10-805 M324I limits assumed) above, with T334I counted along it
T7 sequence (P53762 whole entry partner): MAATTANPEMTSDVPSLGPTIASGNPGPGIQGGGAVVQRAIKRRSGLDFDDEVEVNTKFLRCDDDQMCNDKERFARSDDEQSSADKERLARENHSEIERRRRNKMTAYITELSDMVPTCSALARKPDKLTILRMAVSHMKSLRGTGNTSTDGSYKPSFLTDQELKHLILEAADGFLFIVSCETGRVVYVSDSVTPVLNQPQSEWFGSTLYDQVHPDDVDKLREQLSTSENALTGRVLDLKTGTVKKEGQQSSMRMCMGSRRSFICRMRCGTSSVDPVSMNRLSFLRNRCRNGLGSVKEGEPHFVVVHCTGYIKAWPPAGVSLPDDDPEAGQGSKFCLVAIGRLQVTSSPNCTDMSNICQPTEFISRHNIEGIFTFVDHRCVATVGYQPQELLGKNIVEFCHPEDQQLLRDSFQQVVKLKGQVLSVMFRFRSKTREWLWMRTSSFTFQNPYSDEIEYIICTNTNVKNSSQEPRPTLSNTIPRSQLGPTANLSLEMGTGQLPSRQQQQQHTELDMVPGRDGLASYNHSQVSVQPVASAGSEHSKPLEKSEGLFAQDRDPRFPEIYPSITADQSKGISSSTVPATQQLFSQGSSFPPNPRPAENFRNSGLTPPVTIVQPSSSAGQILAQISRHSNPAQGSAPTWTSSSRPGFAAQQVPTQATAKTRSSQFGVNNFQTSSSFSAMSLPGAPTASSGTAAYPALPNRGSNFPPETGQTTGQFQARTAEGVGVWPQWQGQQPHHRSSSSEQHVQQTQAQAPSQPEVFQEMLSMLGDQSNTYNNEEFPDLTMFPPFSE
T5 sequence (P35869 11-848 T355A): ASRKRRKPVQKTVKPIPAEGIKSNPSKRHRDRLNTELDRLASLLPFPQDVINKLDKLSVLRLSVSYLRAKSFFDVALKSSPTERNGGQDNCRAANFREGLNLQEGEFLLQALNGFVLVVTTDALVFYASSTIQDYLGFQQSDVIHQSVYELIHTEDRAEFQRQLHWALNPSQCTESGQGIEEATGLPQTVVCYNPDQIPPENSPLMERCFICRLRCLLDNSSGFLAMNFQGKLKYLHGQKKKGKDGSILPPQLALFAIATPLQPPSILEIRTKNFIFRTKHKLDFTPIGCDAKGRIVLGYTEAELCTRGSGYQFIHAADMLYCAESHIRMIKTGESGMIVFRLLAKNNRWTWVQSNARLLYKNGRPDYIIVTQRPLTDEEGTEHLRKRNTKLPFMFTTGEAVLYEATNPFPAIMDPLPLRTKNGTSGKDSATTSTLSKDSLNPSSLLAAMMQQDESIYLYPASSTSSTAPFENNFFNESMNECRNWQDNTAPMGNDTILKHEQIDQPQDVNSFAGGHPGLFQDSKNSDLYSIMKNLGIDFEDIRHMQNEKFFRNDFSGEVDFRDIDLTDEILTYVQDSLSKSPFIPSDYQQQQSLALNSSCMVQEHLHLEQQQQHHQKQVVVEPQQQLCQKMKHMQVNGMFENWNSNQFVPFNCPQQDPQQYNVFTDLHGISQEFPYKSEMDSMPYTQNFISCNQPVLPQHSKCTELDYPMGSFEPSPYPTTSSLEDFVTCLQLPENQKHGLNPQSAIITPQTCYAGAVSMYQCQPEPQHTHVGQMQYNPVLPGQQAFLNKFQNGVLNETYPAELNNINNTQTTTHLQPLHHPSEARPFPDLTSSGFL
T5 sequence (P27540 whole entry partner): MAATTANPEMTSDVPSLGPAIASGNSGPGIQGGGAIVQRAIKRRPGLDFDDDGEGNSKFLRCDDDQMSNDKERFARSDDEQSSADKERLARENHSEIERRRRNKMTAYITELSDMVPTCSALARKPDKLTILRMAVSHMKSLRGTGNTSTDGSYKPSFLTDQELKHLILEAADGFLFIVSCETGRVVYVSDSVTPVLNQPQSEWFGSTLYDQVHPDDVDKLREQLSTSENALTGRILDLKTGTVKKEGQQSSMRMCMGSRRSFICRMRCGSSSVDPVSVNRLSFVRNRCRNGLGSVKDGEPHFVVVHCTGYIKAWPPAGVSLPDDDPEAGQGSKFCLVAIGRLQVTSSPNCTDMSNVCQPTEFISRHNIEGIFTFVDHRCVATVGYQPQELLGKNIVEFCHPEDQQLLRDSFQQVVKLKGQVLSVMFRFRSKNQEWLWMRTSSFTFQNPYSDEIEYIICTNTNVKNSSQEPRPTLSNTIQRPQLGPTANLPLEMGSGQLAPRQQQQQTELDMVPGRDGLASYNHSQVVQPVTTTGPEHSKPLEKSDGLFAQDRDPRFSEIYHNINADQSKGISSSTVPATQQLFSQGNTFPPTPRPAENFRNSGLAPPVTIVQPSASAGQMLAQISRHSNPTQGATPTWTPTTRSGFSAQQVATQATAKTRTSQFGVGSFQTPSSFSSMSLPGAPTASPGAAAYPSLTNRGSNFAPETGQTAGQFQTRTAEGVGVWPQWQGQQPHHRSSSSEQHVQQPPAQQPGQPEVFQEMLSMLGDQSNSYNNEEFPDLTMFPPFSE
T20 sequence (P30561 10-805 M324I/R355T limits assumed): as the sequence (P30561 10-805 M324I limits assumed) above, with R346T counted along it
T20 sequence (P53762 whole entry partner): as the sequence (P53762 whole entry partner) above
T11 sequence (P30561 10-805 L300I/M324I limits assumed): as the sequence (P30561 10-805 M324I limits assumed) above, with L291I counted along it
T11 sequence (P53762 whole entry partner): as the sequence (P53762 whole entry partner) above

As to `Clc1cc2c(cc1Cl)Oc1cc(Cl)c(Cl)cc1O2` [[^3H]TCDD], in data set [1], the “more [3H]TCDD bound to wild-type mAhR than to the mAhR-hAhRLBD chimera” value is ~ 10%. For the same compound, the “[3H]TCDD binding to A349T mutant mAhR compared with wild-type mAhR” value in [2] is “not significantly different from that of the wild-type mAhR”.

As to `Cc1ccc2cc3c(ccc4ccccc43)c3c2c1CC3` [3-MC, 3-Methylcholanthrene], the EC50 in [3] was 1.49 ± 0.01 nM. Besides, in data set [4], it took 14.6 ± 3.51 nM to reach a half-maximal effect (EC50) and the “maximal level of reporter gene induction” value is recorded as “maximal induction was not observed”.

For `O=c1cc(-c2ccccc2)oc2ccc3ccccc3c12` [BNF, β-naphthoflavone], in data set [3], the concentration giving a half-maximal response (EC50) stood at 1.84 ± 1.14 nM. The “maximal level of reporter gene induction” value in data set [4] is “maximal induction was not observed”.

For the compound `Clc1cc2c(cc1Cl)Oc1cc(Cl)c(Cl)cc1O2` [TCDD, 2,3,7,8-tetrachlorodibenzo-p-dioxin], the EC50 is 2.32 ± 0.82 nM in data set [5]; 2.09 ± 0.01 nM in data set [6]; 1.79 ± 0.12 nM in data set [7]; 4.34 ± 0.26 nM in [8]; 2.99 ± 0.65 nM in [9]; 0.62 ± 0.52 nM in data set [10]. Besides, the EC50 in data set [11] came out at 1.42 ± 0.61 nM; in data set [12], 0.73 ± 0.04 nM; in data set [15], 0.59 ± 0.6 nM; in data set [16], 2.48 ± 0.54 nM; in data set [17] it was 4.25 ± 0.12 nM; in data set [19], 3.86 ± 1.06 nM. Further, the concentration for a half-maximal effect (EC50) turned out to be 2.92 ± 0.14 nM in data set [20]; 2.29 ± 0.12 nM in data set [21]; 5.25 ± 0.56 nM in data set [22]; 0.94 ± 0.06 nM in [23]; 0.26 ± 0.07 nM in data set [4]; 2.46 ± 0.9 nM in data set [25]. The compound further yielded an EC50 at 4 h in data set [3] (mouse) of 0.027 ± 0.01 nM. For the same compound, the “maximal induction compared with wild-type mAhR” value in [13] is given as “significantly repressed compared to wild-type mAhR”. The “induction of luciferase activity, TCDD versus IR” value in [14] is reported as “comparable to IR”. In addition, the “lower affinity of the mAhR after mutation A375V” value in data set [18] is ~ 10 fold. Further, in data set [24], the “lower activation potency of the mAhR after mutation A375V” value is listed as ~ 10 fold.

(Values after publication PMC6165432 (International Journal of Molecular Sciences, 2018).)
